From ChEMBL document CHEMBL6127104, “Prorocentin-5: A Cytotoxic Polyketide from the Benthic Marine Dinoflagellate Prorocentrum lima” (J Nat Prod, 2024) come the findings set out here.

Activity calls are given as the source filed them. No cut-off for these calls is given here.

Usually IC50 stands for the concentration that gives 50% inhibition.

Test [1] concerns N2a. The test can be described thus: Induction of cell cycle arrest in mouse Neuro2a cells assessed as accumulation of cells at G0/G1 phase at 0.1 uM incubated for 24 hrs by flow cytometric analysis (reference value: 61.5 %). The class given is functional.
For test [2], the system named is HCT-116. Briefly: Induction of apoptosis in human HCT-116 cells assessed as early apoptotic cells at 1 uM incubated for 24 hrs by Annexin V-FITC/PI staining based flow cytometric analysis (reference value: 1.90 %). Format: functional.
Test [3] deals with HCT-116. Briefly: Induction of apoptosis in human HCT-116 cells assessed as necrotic cells at 1 uM incubated for 24 hrs by Annexin V-FITC/PI staining based flow cytometric analysis (reference value: 1.45 %). The class given is functional.
Test [4] concerns HepG2. Briefly: Induction of apoptosis in human HepG2 cells assessed as necrotic cells at 1 uM incubated for 24 hrs by Annexin V-FITC/PI staining based flow cytometric analysis (reference value: 3.02 %). The class given is functional. A general note: Flow cytometry measures light scatter and fluorescence of single cells or particles in a stream.
The subject of test [5] is HCT-116. Briefly: Induction of cell cycle arrest in human HCT-116 cells assessed as accumulation of cells at G2/M phase at 1 uM incubated for 24 hrs by flow cytometric analysis (reference value: 30.6 %). The class given is functional.
For test [6], the system named is HCT-116. The test can be described thus: Induction of apoptosis in human HCT-116 cells assessed as fold increase in late apoptotic cells at 1 uM incubated for 24 hrs by Annexin V-FITC/PI staining based analysis. Format: functional.
The subject of test [7] is N2a. Briefly: Induction of apoptosis in mouse Neuro2a cells assessed as necrotic cells at 0.1 uM incubated for 24 hrs by Annexin V-FITC/PI staining based analysis (reference value: 4.33 %). Format: functional.
Test [8] relates to HepG2. Briefly: Cytotoxicity against human HepG2 cells assessed as inhibition of cell proliferation AT 0.1 to 10 uM incubated for 24 hrs by MTT assay. Format: functional, cell-based. The following applies: dose 0.1-10 µM.
Test [9] relates to N2a. The test can be described thus: Cytotoxicity against mouse Neuro2a cells assessed as inhibition of cell proliferation at 0.1 to 10 uM incubated for 24 hrs by MTT assay. Format: functional, cell-based. The following applies: dose 0.1-10 µM.
In test [10] the test system is HepG2. The test can be described thus: Induction of cell cycle arrest in human HepG2 cells assessed as accumulation of cells at G2/M phase at 0.1 uM incubated for 24 hrs by flow cytometric analysis (reference value: 6.7 %). Format: functional.
Test [11] relates to N2a. The test can be described thus: Cytotoxicity against mouse Neuro2a cells assessed as inhibition of cell proliferation incubated for 24 hrs by MTT assay. Format: functional, cell-based. For orientation: Tetrazolium dyes change colour on reduction, which living cells bring about.
Test [12] relates to N2a. Briefly: Induction of apoptosis in mouse Neuro2a cells assessed as fold increase in late apoptotic cells at 1 uM incubated for 24 hrs by Annexin V-FITC/PI staining based analysis. The class given is functional.
Test [13] has as its system HCT-116. Briefly: Induction of apoptosis in human HCT-116 cells assessed as viable cells at 1 uM incubated for 24 hrs by Annexin V-FITC/PI staining based flow cytometric analysis (reference value: 90.50 %). The following applies: read-out: Activity. The class given is functional.
Test [14] has as its system HCT-116. The test can be described thus: Induction of apoptosis in human HCT-116 cells assessed as late apoptotic cells at 1 uM incubated for 24 hrs by Annexin V-FITC/PI staining based flow cytometric analysis (reference value: 6.15 %). The class given is functional.
The test system of test [15] is HCT-116. Briefly: Cytotoxicity against human HCT-116 cells assessed as inhibition of cell proliferation incubated for 24 hrs by MTT assay. The class given is functional, cell-based. The note with it: HCT-116, 24 h.
Test [16] has as its system HCT-116. Briefly: Cytotoxicity against human HCT-116 cells assessed as inhibition of cell proliferation at 0.1 to 10 uM incubated for 24 hrs by MTT assay. The class given is functional, cell-based. The following applies: dose 0.1-10 µM.
Test [17] concerns HCT-116. The test can be described thus: Induction of cell cycle arrest in human HCT-116 cells assessed as accumulation of cells at G0/G1 phase at 0.1 uM incubated for 24 hrs by flow cytometric analysis (reference value: 90.2 %). Format: functional.
In test [18] the test system is HepG2. Briefly: Induction of apoptosis in human HepG2 cells assessed as late apoptotic cells at 1 uM incubated for 24 hrs by Annexin V-FITC/PI staining based flow cytometric analysis (reference value: 2.05 %). Format: functional.
Test [19] concerns HCT-116. Briefly: Induction of apoptosis in human HCT-116 cells assessed as fold increase in early apoptotic cells at 1 uM incubated for 24 hrs by Annexin V-FITC/PI staining based analysis. Format: functional.
Test [20] has as its system N2a. Briefly: Induction of cell cycle arrest in mouse Neuro2a cells assessed as accumulation of cells at G2/M phase at 1 uM incubated for 24 hrs by flow cytometric analysis (reference value: 8.0 %). Format: functional.

Take `CC(=O)CCCCC[C@@H](O)[C@H](C)C[C@H](C)CC[C@@H]1O[C@H]1C[C@@H]1CC[C@@H](/C=C/C=C/C[C@H](O)C[C@H]2C=C[C@@H](C=C(C)C)O2)O1`: the Activity in [1] is reported as 51.5%; in test [2] it was 5.15%; in test [3] it was 18.45%; in test [4] it was 1.72%; in test [5], 27.1%; in [7] it was 1.16%. Moreover, the Activity in test [10] is listed as 10.5%; in test [14], 17.52%; in test [17] it was 48.4%; in test [18] it was 20.59%; in [20], 13.7%. Further, the “fold change (FC)” value worked out at 2.9 in test [6], 30.7 in test [12] and 2.7 in test [19]. The result in test [8], in [9] and in test [16] was Active. Besides, the IC50 in test [11] amounted to 2.8 µM; in [15], 4.4 µM. Further, in test [13], the viability at 1 µM was 58.5%.
In the case of `C=C1[C@@H](O)[C@@H]2O[C@]3(CC[C@H](/C=C/[C@@H](C)[C@@H]4CC(C)=C[C@@]5(O[C@H](C[C@@](C)(O)C(=O)O)CC[C@H]5O)O4)O3)CC[C@H]2O[C@@H]1[C@@H](O)C[C@H](C)[C@H]1O[C@@]2(CCCCO2)CC[C@H]1C` [OKADAIC ACID], the Activity was found to be 30.4% in [1]; 3.65% in [2]; 19.75% in [3]; 2.92% in [4]; 20.4% in test [5]; 4.9% in [7]. For the same compound, the Activity came out at 14.6% in test [10]; 16.9% in test [14]; 32.2% in [17]; 22.44% in test [18]; 8.1% in test [20]. Besides, the “fold change (FC)” value in test [6] was 2.8; in [12] it was 13.2; in [19] it was 1.9. Further, in [13], the viability at 1 µM came out at 59.7%.
